Experimental data reported in patent publication US4600540A, “Benzoylpropionic acid derivatives” (Taisho Pharmaceutical Co., Ltd., priority 1984, dated 1986).

Tests used:
[1] = system: adjuvant arthritis in Lewis rats; assay: Effect on adjuvant arthritis in Lewis rats (Cellular immunostimulation); type: in vivo; settings: 100 mg/Kg orally once a day, 21 days after sensitization; for Tumor stimulating ratio: control = 1.00; for Edema volume: hind paw
Description: Effect on adjuvant arthritis in Lewis rats
(Cellular immunostimulation)
10 Female Lewis rats, 9 weeks old, weighing 180-190 g were used per each group. Rats of each group were administered subcutaneously into the tail with a suspension of 0.6 mg of heated killed mycobaterium butyricum in liquid parafin. Each of the compounds I, suspended in a 5% gum arabic solution, was administered orally once a day to rats of different groups in an amounts of 100 mg/Kg after sensitization. As a comparative drug was used D-penicillamine in the form of an aqueous solution, which was administered orally to rats of different groups in a manner similar to the compound I.
In intervals were measured the edema volume of the hind paw of rats in the drug-treated groups and the control (the drug-untreated groups) for evaluating the tumor stimulating activity of the drug.

[2] = system: adjuvant arthritis in Sprague-Dawley rats; assay: Effect on adjuvant arthritis in Sprague-Dawley rats (chronic rheumatoid arthritis model); type: in vivo; settings: 21 days after sensitization; for Edema volume: hind paw; for Paw edema suppression rate: vs control
Description: Effect on adjuvant arthritis is Sprague-Dawley rats
(chronic rheumatoid arthritis model)
10 Female Sprague-Dawley rats, 8 weeks old, weighting 160-190 g were used per each group. Rats of each group were administered subcutaneously into the tail with a suspension of 0.6 mg of heated killed mycobaterium butyricum in liquid parafin. Each of the compounds I, suspended in a 5% gum arabic solution, was administered orally once a day to rats of different groups in different amounts after sensitization.
At intervals were measured the edema volume of the hind paw of rats in the drug-treated groups and the control (drug-untreated groups) for evaluating tumor suppression activity of the compounds I.

[3] = Acute toxicity; settings: rat, in vivo; oral, male Wister rats, observed for 7 days
Description: 7 male, 7 weeks old, Wister rats weighing 149-160 g were used per each for test. Rats were administered orally with a suspension of the compound I of Example 1 in a 5% gum arabic solution and observed for 7 days after administration, and the LD50 value was calculated.

[4] = system: delayed-type footpad reaction; assay: Effect on delayed-type footpad reaction (Cellular immunomodulating effect); type: in vivo, Balb/c mice; settings: 2 hours after sensitization
Description: Effect on delayed-type footpad reaction
(Cellular immunomodulating effect)
8 Female Balb/c mice, 8-12 weeks oil, weighing 20-24 g were used per each group. Mice of each group were administered subcutaneously into the right footpad with 1×10^8 sheep red blood cells as antigen to be sensitized.
Each of the compounds I, suspended in a 0.5% gum arabic saline solution, was administered intraperitoneally to mice of different groups in different amounts 2 hours after the sensitization.
Four days after the sensitization, mice of each group were administered subcutaneously into the left footpad with 1×10^8 sheep red blood cells, and the increase of thickness of swelling footpad was measured for evaluating the suppression to the delayed-type footpad reaction according to the method of Lagrange et al [Journal of Experimental Medicine, vol. 139, page 528,(1974)].

[5] = system: spleen lymphocytes; assay: Stimulating effect of lymphocytes transformation (3H-thymidine uptake, mitogenation); type: cell-based, BDF1 mice; settings: Mus musculus, Lymphocyte; for activity at 0.3 µg/mL: 0.3 μg/ml; for activity at 1 µg/mL: 1 μg/ml; for activity at 3 µg/mL: 3 μg/ml; for activity at 10 µg/mL: 10 μg/ml; for activity at 30 µg/mL: 30 μg/ml
[6] = system: spleen lymphocytes; assay: as above; type: cell-based, BDF1 mice; settings: Mus musculus, Lymphocyte, B medium (with lipopolysaccharide 0.2 μg/ml); 0.3 μg/ml
Description: Stimulating effect of lymphocytes transformation
(Immunomodulative stimulating effect)
Mediums of RPMI-1640 (produced by GIBCO Co.) containing the compound I only (A medium), and containing a mitogen (lipopolysaccharide 0.2 μg/ml) and the compound I (B medium) were prepared.
2×10^5 of spleen lymphocytes of female BDF1 mice, 8-12 weeks old, weighing 20-22 g were cultured on each of the mediums at 37° C. for 48 hours under a 5% carbon dioxide in air. 0.25 μCi of ^3 H-thymidine was added to each of the mediums, and cultivation was further carried out for 22 hours. After completion of the cultivation, the lymphocytes were collected and their radio activity was measured to calculate the ^3 H-thymidine uptake into the lymphocytes for evaluating mitogenation.
The results were expressed as percent to ^3 H-thymidine uptake into lymphocytes in the control medium (not containing the compound I) and shown in Table 4.

[7] = B medium (with lipopolysaccharide 0.2 μg/ml)

## CC(C)(S)[C@@H](N)C(=O)O [D-penicillamine, reference compound]
[1]
  Tumor stimulating ratio: 1.38
  Edema volume: 3.76 ± 0.11 mL

## CC(=O)SCC(CC(=O)c1ccccc1)C(=O)O (centres unmarked) [Example 1, 2-acethylthiomethyl-3-benzoylpropionic acid]
[2]; 30 mg/kg orally once a day
  Edema volume: 0.58 ± 0.18 mL
  Paw edema suppression rate: 69.0%
[3]
  LD50 at 168 h: > 1200 mg/kg
[4]; 10 mg/kg intraperitoneally
  Increase of thickness of swelling footpad: 102.5 ± 10.8 × 10^-2 mm
  Suppression rate of delayed-type footpad reaction: 37.7
[4]; 100 mg/kg intraperitoneally
  Increase of thickness of swelling footpad: 80.6 ± 8.0 × 10^-2 mm
  Suppression rate of delayed-type footpad reaction: 51.0
[5]; A medium (compound only)
  activity at 0.3 µg/mL: 120%
  activity at 1 µg/mL: 114%
  activity at 3 µg/mL: 129%
  activity at 10 µg/mL: 128%
  activity at 30 µg/mL: 149%
[5]; [7]
  activity at 1 µg/mL: 146%
  activity at 3 µg/mL: 177%
  activity at 10 µg/mL: 217%
  activity at 30 µg/mL: 241%
[6]
  activity at 0.3 µg/mL: 134%

## CC(=O)SCC(CC(=O)c1ccc(F)cc1)C(=O)O (centres unmarked) [Example 2]
[1]
  Tumor stimulating ratio: 1.27
  Edema volume: 3.46 ± 0.47 mL

## CC(=O)SCC(CC(=O)c1ccc(Cl)cc1)C(=O)O (centres unmarked) [Example 3]
[1]
  Tumor stimulating ratio: 1.18
  Edema volume: 3.22 ± 0.09 mL

## CC(=O)SCC(CC(=O)c1ccc(Br)cc1)C(=O)O (centres unmarked) [Example 4, 2-acetylthiomethyl-3-(4-bromobenzoyl)propionic acid]
[1]
  Tumor stimulating ratio: 1.20
  Edema volume: 3.27 ± 0.28 mL
[2]; 30 mg/kg orally once a day
  Edema volume: 0.64 ± 0.29 mL
  Paw edema suppression rate: 65.8%
[2]; 100 mg/kg orally once a day
  Edema volume: 0.36 ± 0.14 mL
  Paw edema suppression rate: 80.7%
[2]; 300 mg/kg orally once a day
  Edema volume: 0.12 ± 0.09 mL
  Paw edema suppression rate: 93.6%
[4]; 10 mg/kg intraperitoneally
  Increase of thickness of swelling footpad: 115.6 ± 4.8 × 10^-2 mm
  Suppression rate of delayed-type footpad reaction: 8.5
[4]; 100 mg/kg intraperitoneally
  Increase of thickness of swelling footpad: 89.4 ± 5.5 × 10^-2 mm
  Suppression rate of delayed-type footpad reaction: 29.3
[5]; A medium (compound only)
  activity at 0.3 µg/mL: 83%
  activity at 3 µg/mL: 97%
  activity at 30 µg/mL: 117%
[5]; [7]
  activity at 3 µg/mL: 107%
  activity at 30 µg/mL: 131%
[6]
  activity at 0.3 µg/mL: 115%

## COc1ccc(C(=O)CC(CSC(C)=O)C(=O)O)cc1 (centres unmarked) [Example 7]
[1]
  Tumor stimulating ratio: 1.25
  Edema volume: 3.41 ± 0.19 mL

## O=C(CC(CSC(=O)c1ccccc1)C(=O)O)c1ccccc1 (centres unmarked) [Example 13, 3-benzoyl-2-benzoylthiomethylpropionic acid]
[1]
  Tumor stimulating ratio: 1.33
  Edema volume: 3.63 ± 0.11 mL

## CCOC(=O)C(CSC(C)=O)CC(=O)c1ccccc1 (centres unmarked) [Example 16, ethyl 2-acethylthiomethyl-3-benzoylpropionate]
[1]
  Tumor stimulating ratio: 1.17
  Edema volume: 3.18 ± 0.17 mL
